The source made the active and inactive calls. The calls are words filed in the database; no cut-off is given here.
How the values were obtained:
PC-3 = test: Antiproliferative activity against human PC3 cells; format: functional, cell-based
[1] = biological target: Phosphatidylinositol 4,5-bisphosphate 3-kinase catalytic subunit alpha isoform (Homo sapiens, UniProt P42336); test: Inhibition of PI3K-alpha
[2] = biological target: Serine/threonine-protein kinase mTOR (Homo sapiens, UniProt P42345); test: Inhibition of mTOR
[3] = biological target: Phosphatidylinositol 4,5-bisphosphate 3-kinase catalytic subunit gamma isoform (Homo sapiens, UniProt P48736); test: Inhibition of PI3K-gamma
Sequence of Phosphatidylinositol 4,5-bisphosphate 3-kinase catalytic subunit gamma isoform (P48736 whole entry, canonical isoform): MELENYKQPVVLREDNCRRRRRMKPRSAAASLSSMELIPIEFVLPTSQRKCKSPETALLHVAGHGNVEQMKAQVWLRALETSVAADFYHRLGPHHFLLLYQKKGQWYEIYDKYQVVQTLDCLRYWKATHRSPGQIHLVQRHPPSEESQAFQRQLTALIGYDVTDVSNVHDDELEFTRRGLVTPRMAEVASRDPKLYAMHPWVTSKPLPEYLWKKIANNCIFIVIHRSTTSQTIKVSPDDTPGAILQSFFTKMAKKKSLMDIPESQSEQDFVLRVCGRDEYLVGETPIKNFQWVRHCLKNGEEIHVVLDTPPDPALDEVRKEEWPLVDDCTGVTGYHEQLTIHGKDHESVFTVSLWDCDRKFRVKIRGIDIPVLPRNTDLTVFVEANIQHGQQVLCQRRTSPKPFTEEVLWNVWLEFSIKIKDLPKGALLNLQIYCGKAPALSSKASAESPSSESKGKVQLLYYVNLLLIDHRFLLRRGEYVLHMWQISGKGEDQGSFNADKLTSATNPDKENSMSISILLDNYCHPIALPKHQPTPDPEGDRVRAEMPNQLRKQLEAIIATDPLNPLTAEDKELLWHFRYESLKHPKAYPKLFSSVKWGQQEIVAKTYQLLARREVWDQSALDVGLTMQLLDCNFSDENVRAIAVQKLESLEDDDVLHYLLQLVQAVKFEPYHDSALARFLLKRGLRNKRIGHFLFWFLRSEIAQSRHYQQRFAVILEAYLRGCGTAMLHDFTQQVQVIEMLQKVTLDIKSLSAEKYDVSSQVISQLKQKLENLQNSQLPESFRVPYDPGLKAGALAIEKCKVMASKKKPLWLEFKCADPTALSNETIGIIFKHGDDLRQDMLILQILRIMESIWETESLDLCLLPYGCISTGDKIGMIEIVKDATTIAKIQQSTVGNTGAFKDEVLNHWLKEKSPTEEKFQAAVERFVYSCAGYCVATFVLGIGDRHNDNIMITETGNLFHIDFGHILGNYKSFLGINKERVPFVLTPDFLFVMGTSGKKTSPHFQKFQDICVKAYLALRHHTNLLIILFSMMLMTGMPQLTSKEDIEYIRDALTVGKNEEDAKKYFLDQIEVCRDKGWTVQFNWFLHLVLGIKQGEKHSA

MDA-MB-361 [4] = test: Antiproliferative activity against human MDA-MB-361 cells; format: functional, cell-based
Cytochrome P450 2B6 = biological target: T1, Cytochrome P450 2B6 (Homo sapiens, UniProt P20813); test: Inhibition of CYP2B6; format: ADME
T1 sequence (P20813 whole entry): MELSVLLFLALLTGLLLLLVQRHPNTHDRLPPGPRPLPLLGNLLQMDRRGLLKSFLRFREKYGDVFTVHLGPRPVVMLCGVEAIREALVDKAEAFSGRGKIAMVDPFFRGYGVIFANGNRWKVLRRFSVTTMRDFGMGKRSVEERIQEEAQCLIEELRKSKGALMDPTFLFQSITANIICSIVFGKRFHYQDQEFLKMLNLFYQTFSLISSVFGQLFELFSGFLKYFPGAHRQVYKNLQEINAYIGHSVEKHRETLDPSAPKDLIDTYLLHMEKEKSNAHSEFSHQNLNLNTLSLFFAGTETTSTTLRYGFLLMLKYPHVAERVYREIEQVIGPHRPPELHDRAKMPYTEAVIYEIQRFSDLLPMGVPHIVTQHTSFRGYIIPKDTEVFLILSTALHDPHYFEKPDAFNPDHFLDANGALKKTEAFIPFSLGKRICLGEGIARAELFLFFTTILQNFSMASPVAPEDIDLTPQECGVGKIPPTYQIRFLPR

[5] = biological target: T2, Phosphatidylinositol 4,5-bisphosphate 3-kinase catalytic subunit delta isoform (Homo sapiens, UniProt O00329); test: Inhibition of PI3K-delta
T2 sequence (O00329 whole entry): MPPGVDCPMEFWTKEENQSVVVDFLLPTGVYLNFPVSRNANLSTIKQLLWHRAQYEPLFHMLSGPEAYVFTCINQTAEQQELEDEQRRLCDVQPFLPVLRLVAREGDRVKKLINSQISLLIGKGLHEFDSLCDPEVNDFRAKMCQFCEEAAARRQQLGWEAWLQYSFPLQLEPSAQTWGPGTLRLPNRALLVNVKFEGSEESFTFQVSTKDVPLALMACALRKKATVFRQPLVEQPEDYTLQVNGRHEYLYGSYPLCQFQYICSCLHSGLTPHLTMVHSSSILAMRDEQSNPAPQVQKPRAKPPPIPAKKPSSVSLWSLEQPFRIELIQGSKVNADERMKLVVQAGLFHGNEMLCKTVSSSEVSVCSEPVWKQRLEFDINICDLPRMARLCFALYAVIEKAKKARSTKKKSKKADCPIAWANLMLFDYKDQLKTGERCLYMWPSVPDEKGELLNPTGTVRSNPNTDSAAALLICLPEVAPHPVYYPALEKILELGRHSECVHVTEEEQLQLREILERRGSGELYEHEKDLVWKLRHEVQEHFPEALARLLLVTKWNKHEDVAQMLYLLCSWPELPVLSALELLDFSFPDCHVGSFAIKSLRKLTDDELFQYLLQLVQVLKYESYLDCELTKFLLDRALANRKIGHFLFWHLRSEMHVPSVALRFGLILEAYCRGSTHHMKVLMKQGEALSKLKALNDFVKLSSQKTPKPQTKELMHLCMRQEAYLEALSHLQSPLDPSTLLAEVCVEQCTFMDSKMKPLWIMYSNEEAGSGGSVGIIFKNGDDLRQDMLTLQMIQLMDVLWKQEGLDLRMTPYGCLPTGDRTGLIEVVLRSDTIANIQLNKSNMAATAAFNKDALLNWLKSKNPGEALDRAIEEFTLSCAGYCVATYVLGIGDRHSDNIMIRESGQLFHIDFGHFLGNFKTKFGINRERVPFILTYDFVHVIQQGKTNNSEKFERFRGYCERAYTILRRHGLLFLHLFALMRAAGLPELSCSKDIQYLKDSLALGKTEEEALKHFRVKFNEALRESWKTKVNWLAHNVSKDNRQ

Mus musculus [6] = test: In vivo inhibition of mTORC1 in mouse bearing human MDA-MB-361 cells assessed as inhibition of S6 phosphorylation at 50 mg/kg, po; format: functional, organism-based; design: dose 50 mg/kg
Cytochrome P450 2D6 = Cytochrome P450 2D6 (Homo sapiens, UniProt P10635); test: Inhibition of CYP2D6; format: ADME
Sequence of Cytochrome P450 2D6 (P10635 whole entry, canonical isoform): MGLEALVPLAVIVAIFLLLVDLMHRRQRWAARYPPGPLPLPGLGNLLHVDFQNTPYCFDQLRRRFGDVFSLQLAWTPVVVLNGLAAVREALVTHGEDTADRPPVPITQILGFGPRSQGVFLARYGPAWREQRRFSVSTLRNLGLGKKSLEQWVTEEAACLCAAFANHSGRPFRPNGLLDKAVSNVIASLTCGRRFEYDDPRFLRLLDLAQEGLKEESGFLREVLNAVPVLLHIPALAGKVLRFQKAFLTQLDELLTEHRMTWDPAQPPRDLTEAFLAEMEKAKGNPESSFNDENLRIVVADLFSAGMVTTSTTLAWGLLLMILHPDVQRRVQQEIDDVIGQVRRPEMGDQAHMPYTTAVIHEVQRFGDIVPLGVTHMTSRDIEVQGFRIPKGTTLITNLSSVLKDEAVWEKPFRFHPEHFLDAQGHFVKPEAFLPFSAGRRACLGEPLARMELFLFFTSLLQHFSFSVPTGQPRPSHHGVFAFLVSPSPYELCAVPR

[7] = biological target: Phosphatidylinositol 4,5-bisphosphate 3-kinase catalytic subunit alpha isoform (Homo sapiens, UniProt P42336, E545K); test: Inhibition of PI3K-alpha E545K mutant
Sequence of Phosphatidylinositol 4,5-bisphosphate 3-kinase catalytic subunit alpha isoform (Homo sapiens, UniProt P42336, E545K) (P42336 whole entry E545K, canonical isoform): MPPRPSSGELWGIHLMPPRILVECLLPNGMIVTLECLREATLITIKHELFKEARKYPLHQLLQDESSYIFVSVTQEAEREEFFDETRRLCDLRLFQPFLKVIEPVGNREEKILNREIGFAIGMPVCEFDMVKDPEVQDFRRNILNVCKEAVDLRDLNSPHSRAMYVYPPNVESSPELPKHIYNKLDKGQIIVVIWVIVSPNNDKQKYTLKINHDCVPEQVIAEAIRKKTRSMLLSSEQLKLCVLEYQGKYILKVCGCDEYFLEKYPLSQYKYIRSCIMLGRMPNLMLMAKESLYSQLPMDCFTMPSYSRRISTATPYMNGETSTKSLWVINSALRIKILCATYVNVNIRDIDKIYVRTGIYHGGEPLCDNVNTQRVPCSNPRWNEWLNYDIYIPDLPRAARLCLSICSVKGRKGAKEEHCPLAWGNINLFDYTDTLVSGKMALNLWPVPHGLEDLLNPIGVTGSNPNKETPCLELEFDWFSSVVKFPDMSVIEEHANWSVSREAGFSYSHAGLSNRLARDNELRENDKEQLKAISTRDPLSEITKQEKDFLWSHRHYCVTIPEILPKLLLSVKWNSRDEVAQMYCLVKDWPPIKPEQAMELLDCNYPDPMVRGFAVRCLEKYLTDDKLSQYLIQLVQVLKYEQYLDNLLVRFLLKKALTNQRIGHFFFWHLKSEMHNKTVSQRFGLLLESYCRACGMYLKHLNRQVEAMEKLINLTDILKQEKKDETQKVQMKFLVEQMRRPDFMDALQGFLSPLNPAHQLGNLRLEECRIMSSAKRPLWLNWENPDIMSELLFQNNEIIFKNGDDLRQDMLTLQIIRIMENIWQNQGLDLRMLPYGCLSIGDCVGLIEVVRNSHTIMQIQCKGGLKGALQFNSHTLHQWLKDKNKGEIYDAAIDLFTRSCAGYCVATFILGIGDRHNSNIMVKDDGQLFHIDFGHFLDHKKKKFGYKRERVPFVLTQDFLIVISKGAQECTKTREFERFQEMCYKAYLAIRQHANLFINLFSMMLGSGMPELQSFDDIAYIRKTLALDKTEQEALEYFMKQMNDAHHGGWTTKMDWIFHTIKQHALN

Mus musculus [8] = test: In vivo inhibition of mTORC1 in mouse bearing human MDA-MB-361 cells assessed as inhibition of S6K phosphorylation at 50 mg/kg, po; format: functional, organism-based; design: dose 50 mg/kg
MDA-MB-361 [9] = test: Antitumor activity against human MDA-MB-361 cells xenografted in mouse assessed as inhibition tumor growth at 10 mg/kg, po qd; format: functional, organism-based; design: dose 10 mg/kg
Cytochrome P450 3A4 = Cytochrome P450 3A4 (Homo sapiens, UniProt P08684); test: Inhibition of CYP3A4; format: ADME
Sequence of Cytochrome P450 3A4 (P08684 whole entry): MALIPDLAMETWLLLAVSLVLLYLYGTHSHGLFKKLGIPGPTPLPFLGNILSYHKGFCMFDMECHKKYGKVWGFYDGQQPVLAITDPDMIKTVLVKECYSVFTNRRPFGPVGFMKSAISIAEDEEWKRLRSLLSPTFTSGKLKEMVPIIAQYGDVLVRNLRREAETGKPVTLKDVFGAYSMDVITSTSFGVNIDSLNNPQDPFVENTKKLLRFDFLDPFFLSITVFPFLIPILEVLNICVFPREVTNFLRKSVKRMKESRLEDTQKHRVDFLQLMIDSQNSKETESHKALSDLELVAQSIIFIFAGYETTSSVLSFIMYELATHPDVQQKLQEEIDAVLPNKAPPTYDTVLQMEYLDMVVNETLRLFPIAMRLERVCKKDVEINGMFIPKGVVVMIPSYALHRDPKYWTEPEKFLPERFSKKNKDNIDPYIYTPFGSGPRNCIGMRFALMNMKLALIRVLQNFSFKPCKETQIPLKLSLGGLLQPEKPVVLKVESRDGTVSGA

Cytochrome P450 2A6 = biological target: T3, Cytochrome P450 2A6 (Homo sapiens, UniProt P11509); test: Inhibition of CYP2A6; format: ADME
T3 sequence (P11509 whole entry): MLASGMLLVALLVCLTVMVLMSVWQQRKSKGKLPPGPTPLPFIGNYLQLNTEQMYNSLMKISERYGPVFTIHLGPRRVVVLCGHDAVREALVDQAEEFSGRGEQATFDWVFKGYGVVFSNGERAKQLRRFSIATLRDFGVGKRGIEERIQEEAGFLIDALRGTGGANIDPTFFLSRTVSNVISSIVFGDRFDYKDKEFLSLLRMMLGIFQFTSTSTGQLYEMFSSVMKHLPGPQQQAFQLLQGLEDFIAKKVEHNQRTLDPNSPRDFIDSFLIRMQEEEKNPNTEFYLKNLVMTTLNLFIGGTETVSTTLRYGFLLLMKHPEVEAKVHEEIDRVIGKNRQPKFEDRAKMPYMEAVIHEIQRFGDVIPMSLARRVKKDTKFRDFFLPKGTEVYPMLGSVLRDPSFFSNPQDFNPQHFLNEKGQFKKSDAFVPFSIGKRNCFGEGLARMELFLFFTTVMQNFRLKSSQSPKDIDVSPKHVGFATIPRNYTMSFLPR

[10] = biological target: Phosphatidylinositol 4,5-bisphosphate 3-kinase catalytic subunit beta isoform (Homo sapiens, UniProt P42338); test: Inhibition of PI3K-beta
Sequence of Phosphatidylinositol 4,5-bisphosphate 3-kinase catalytic subunit beta isoform (P42338 whole entry, canonical isoform): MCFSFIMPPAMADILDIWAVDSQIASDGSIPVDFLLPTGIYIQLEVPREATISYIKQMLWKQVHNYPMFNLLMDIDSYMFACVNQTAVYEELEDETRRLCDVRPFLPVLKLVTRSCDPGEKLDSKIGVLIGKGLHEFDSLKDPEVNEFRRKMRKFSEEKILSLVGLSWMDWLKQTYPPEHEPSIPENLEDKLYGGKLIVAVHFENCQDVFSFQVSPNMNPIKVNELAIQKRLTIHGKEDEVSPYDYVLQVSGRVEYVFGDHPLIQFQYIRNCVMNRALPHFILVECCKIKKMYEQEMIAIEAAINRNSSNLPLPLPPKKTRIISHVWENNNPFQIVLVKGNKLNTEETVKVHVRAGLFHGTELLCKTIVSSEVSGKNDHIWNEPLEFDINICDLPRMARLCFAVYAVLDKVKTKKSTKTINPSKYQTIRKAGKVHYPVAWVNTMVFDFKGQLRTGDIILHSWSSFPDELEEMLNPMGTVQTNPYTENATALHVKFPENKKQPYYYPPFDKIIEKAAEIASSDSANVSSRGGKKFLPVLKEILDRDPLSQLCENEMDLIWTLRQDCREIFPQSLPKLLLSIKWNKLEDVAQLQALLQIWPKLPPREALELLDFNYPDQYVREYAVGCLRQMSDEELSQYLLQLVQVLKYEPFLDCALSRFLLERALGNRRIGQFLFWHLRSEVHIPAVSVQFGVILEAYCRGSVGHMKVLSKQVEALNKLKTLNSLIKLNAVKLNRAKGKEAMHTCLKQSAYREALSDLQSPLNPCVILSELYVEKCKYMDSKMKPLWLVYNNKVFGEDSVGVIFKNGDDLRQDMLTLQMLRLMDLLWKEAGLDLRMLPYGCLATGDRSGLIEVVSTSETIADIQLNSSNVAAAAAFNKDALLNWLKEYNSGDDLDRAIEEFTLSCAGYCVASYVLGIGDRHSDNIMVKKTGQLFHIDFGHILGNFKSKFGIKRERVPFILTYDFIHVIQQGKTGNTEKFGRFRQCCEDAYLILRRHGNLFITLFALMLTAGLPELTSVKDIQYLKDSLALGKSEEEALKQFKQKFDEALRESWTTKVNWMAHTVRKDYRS

Cytochrome P450 2C8 = biological target: T4, Cytochrome P450 2C8 (Homo sapiens, UniProt P10632); test: Inhibition of CYP2C8; format: ADME
T4 sequence (P10632 whole entry): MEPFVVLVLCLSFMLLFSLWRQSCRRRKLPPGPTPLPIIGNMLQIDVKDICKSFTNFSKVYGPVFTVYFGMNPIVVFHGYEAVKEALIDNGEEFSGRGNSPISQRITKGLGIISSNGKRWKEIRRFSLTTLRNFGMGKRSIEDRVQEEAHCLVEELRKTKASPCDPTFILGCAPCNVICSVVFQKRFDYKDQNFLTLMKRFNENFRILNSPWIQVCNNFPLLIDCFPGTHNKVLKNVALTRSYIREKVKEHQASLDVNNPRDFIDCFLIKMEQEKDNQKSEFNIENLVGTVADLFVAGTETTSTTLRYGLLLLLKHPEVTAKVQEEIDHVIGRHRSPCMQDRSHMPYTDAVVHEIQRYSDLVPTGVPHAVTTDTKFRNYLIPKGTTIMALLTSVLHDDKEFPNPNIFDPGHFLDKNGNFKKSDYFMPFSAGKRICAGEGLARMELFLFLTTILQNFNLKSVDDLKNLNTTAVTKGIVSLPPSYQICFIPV

Cytochrome P450 2C19 = Cytochrome P450 2C19 (Homo sapiens, UniProt P33261); test: Inhibition of CYP2C19; format: ADME
Sequence of Cytochrome P450 2C19 (P33261 whole entry): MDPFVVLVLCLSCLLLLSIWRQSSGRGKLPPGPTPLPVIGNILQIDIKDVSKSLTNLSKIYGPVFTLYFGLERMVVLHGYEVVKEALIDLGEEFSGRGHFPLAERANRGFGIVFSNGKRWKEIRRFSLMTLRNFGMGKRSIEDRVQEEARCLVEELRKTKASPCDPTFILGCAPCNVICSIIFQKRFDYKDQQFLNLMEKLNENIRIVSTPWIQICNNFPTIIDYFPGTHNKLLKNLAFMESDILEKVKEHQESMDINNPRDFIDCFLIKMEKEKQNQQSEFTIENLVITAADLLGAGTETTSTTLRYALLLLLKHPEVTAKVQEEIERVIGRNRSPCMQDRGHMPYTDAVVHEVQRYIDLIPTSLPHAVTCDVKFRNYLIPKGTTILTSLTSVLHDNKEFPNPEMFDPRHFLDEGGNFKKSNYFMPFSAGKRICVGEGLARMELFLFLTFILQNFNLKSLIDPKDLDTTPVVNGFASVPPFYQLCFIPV

Mus musculus [11] = test: Toxicity in mouse assessed as weight loss at 10 mg/kg, po qd; format: organism-based; design: dose 10 mg/kg, route oral; details: in vivo
[12] = Inhibition of PI3K-alpha […] mutant
Mus musculus [13] = test: In vivo inhibition of PI3K in mouse bearing human MDA-MB-361 cells assessed as inhibition of AKT phosphorylation at 50 mg/kg, po; format: functional, organism-based; design: dose 50 mg/kg
Cytochrome P450 1A2 = biological target: T5, Cytochrome P450 1A2 (Homo sapiens, UniProt P05177); test: Inhibition of CYP1A2; format: ADME
T5 sequence (P05177 whole entry): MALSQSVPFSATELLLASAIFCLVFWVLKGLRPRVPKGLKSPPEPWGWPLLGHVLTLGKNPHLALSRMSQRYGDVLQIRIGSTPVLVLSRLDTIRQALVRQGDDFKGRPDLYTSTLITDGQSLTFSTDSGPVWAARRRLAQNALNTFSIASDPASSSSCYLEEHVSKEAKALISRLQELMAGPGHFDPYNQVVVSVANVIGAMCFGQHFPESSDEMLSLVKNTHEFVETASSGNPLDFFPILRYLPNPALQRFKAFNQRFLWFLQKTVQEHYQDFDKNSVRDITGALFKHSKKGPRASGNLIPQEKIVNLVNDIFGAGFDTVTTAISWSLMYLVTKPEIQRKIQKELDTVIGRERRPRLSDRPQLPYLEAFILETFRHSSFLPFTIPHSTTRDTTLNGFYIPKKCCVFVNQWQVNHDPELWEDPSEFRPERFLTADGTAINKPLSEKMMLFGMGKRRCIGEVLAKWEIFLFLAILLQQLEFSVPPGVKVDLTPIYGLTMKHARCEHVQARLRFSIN

MDA-MB-361 [14] = test: Induction of apoptosis in human MDA-MB-361 cells assessed as PARP cleavage after 4 hrs; format: functional, cell-based

Sequence of Phosphatidylinositol 4,5-bisphosphate 3-kinase catalytic subunit alpha isoform (Homo sapiens, UniProt P42336) (P42336 whole entry, canonical isoform): as the sequence (P42336 whole entry E545K, canonical isoform) above, with K545E counted along it

| SMILES | IC50 (PC-3) [nM] | IC50 [1] [nM] | IC50 [2] [nM] | IC50 [3] [nM] | IC50 (MDA-MB-361 [4]) [nM] | also measured |
| --- | --- | --- | --- | --- | --- | --- |
| COc1ccc(NC(=O)Nc2ccc(-c3nc(N4CCOCC4)nc(N4C5CCC4COC5)n3)cc2)cc1OC | 1250 | 13.5 | 93.5 | 358 | 402 | – |
| CN(C)c1ccc(NC(=O)Nc2ccc(-c3nc(N4CCOCC4)nc(N4C5CCC4COC5)n3)cc2)cc1 | > 1000 | 3.5 | 13.5 | 717 | > 1000 | – |
| CN1CCN(Cc2ccc(NC(=O)Nc3ccc(-c4nc(N5CCOCC5)nc(N5C6CCC5COC6)n4)cc3)cc2)CC1 | 31 | – | – | – | 14 | – |
| O=C(Nc1ccc(CCO)cc1)Nc1ccc(-c2nc(N3CCOCC3)nc(N3C4CCC3COC4)n2)cc1 | 30 | – | – | – | 22 | – |
| CN(C)CCOc1ccc(NC(=O)Nc2ccc(-c3nc(N4CCOCC4)nc(N4C5CCC4COC5)n3)cc2)cc1 | < 30 | 14 | – | – | < 30 | – |
| O=C(Nc1ccc(-c2nc(N3CCOCC3)nc(N3C4CCC3COC4)n2)cc1)Nc1cccnc1 | 98 | – | – | – | 73 | – |
| N#Cc1ccc(NC(=O)Nc2ccc(-c3nc(N4CCOCC4)nc(N4C5CCC4COC5)n3)cc2)cc1 | 3600 | – | 3.3 | – | 345 | – |
| O=C(Nc1ccc(-c2nc(N3CCOCC3)nc(N3C4CCC3COC4)n2)cc1)Nc1ccnnc1 | 47 | 28 | – | – | 36 | – |
| O=C(Nc1ccncc1)Nc1ccc(-c2nc(N3CCOCC3)nc(N3C4COCC3[C@@H](O)C4)n2)cc1 (stereo partly drawn) | 80 | 4 | 0.8 | 33 | 32 | – |
| O=C(Nc1ccc(-c2nc(N3CCOCC3)nc(N3C4CCC3COC4)n2)cc1)Nc1cncnc1 | 138 | 84 | – | 240 | 110 | – |
| Cc1ccc(NC(=O)Nc2ccc(-c3nc(N4CCOCC4)nc(N4C5CCC4COC5)n3)cc2)cc1 | 301 | – | – | – | 167 | – |
| O=C(Nc1ccncc1)Nc1ccc(-c2nc(N3CCOCC3)nc(N3C4CCC3COC4)n2)cc1 [PKI-179] | 29 | – | 0.42 | 74 | 22 | IC50 (Cytochrome P450 2B6): > 30000 nM; IC50 [5]: 77 nM; inhibition (Mus musculus [6]): Active; IC50 (Cytochrome P450 2D6): > 30000 nM; IC50 [7]: 14 nM; inhibition (Mus musculus [8]): Active; inhibition (MDA-MB-361 [9]): Active; IC50 (Cytochrome P450 3A4): > 30000 nM; IC50 (Cytochrome P450 2A6): > 30000 nM; IC50 [10]: 24 nM; IC50 (Cytochrome P450 2C8): 3000 nM; IC50 (Cytochrome P450 2C19): > 30000 nM; Activity (Mus musculus [11]): Non-toxic; IC50 [12]: 11 nM; inhibition (Mus musculus [13]): Active; IC50 (Cytochrome P450 1A2): > 30000 nM; Activity (MDA-MB-361 [14]): Active |
| O=C(Nc1ccc(-c2nc(N3CCOCC3)nc(N3C4CCC3COC4)n2)cc1)Nc1ccc(-c2cccnc2)nc1 | 45 | 40 | 3.45 | 44 | 56 | – |
| O=C(Nc1ccc(-c2nc(N3CCOCC3)nc(N3C4CCC3COC4)n2)cc1)Nc1ccnc(Cl)c1 | 118 | 23 | – | – | 93 | – |
| O=C(Nc1ccccc1)Nc1ccc(-c2nc(N3CCOCC3)nc(N3C4CCC3COC4)n2)cc1 | 147 | 18 | 2 | 51 | 104 | – |
| O=C(Nc1ccc(F)cc1)Nc1ccc(-c2nc(N3CCOCC3)nc(N3C4CCC3COC4)n2)cc1 | 176 | – | 1.9 | – | 98 | – |
| O=C(Nc1ccc(CO)cc1)Nc1ccc(-c2nc(N3CCOCC3)nc(N3C4CCC3COC4)n2)cc1 | 28 | – | – | – | 15 | – |
| CN1CCN(c2ccc(NC(=O)Nc3ccc(-c4nc(N5CCOCC5)nc(N5C6CCC5COC6)n4)cc3)cc2)CC1 | 40 | – | 1.1 | – | 35 | – |
